In patent US9695155B2, “Herbicidal substituted pyrimidinyloxy benzene compounds” (E. I. DU PONT DE NEMOURS AND COMPANY, priority 2013, dated 2017):

Columns and labels:
pigweed [1] = assay: Test A preemergence; format: in vivo, Amaranthus retroflexus; conditions: for Pigweed plant response rating: 500 g ai/ha
Procedure, shortened: (§1)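 Injury scores run from 0, no effect, to 100, complete control, judged by eye against untreated plants roughly 10 days after treatment. Chemicals carried a surfactant in a non-phytotoxic solvent and went onto loam–sand soil preemergence or onto one- to two-leaf seedlings postemergence.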

morningglory [2] = assay: Test A preemergence; format: in vivo, Ipomoea spp.; conditions: for Morningglory plant response rating: 500 g ai/ha
Procedure, shortened: as §1

wheat [3] = assay: Test A postemergence; format: in vivo, Triticum aestivum; conditions: 0 to 100 scale where 0 is no effect and 100 is complete control; for Plant response rating, Wheat: 500 g ai/ha
Procedure, shortened: as §1

large (Lg) crabgrass [4] = assay: Test A preemergence; format: in vivo, Digitaria sanguinalis; conditions: for Crabgrass, Large plant response rating: 500 g ai/ha
Procedure, shortened: as §1

corn [5] = assay: Test A postemergence; format: in vivo, Zea mays; conditions: 0 to 100 scale where 0 is no effect and 100 is complete control
Procedure, shortened: as §1

rice = assay: Test B flooded paddy test; format: in vivo, Oryza sativa; conditions: Flood, 250 g ai/ha; 0 to 100 scale where 0 is no effect and 100 is complete control
Procedure, shortened: (§2)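 Plants at 2-leaf stage; pots flooded to 3 cm above soil and compound applied directly into paddy water, depth held throughout. After 13 to 15 days in greenhouse, visual rating versus controls on 0 (no effect) to 100 (complete control) scale.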

corn [6] = assay: Test A preemergence; format: in vivo, Zea mays; conditions: for Corn plant response rating: 500 g ai/ha
Procedure, shortened: as §1

sedge, umbrella = assay: Test B flooded paddy test; format: in vivo, Cyperus difformis; conditions: Flood, 250 g ai/ha; 0 to 100 scale where 0 is no effect and 100 is complete control
Procedure, shortened: as §2

velvetleaf [7] = assay: Test A postemergence; format: in vivo, Abutilon theophrasti; conditions: 0 to 100 scale where 0 is no effect and 100 is complete control; for Plant response rating, Velvetleaf: 500 g ai/ha
Procedure, shortened: as §1

pigweed [8] = assay: Test A postemergence; format: in vivo, Amaranthus retroflexus; conditions: 0 to 100 scale where 0 is no effect and 100 is complete control; for Plant response rating, Pigweed: 500 g ai/ha
Procedure, shortened: as §1

Heteranthera limosa = assay: Test B flooded paddy test; format: in vivo; conditions: Flood, 250 g ai/ha; 0 to 100 scale where 0 is no effect and 100 is complete control
Procedure, shortened: as §2

morningglory [9] = assay: Test A postemergence; format: in vivo, Ipomoea spp.; conditions: 0 to 100 scale where 0 is no effect and 100 is complete control; for Plant response rating, Morningglory: 500 g ai/ha
Procedure, shortened: as §1

barnyardgrass [10] = assay: Test A preemergence; format: in vivo, Echinochloa crus-galli; conditions: for Barnyardgrass plant response rating: 500 g ai/ha
Procedure, shortened: as §1

barnyardgrass [11] = assay: Test B flooded paddy test; format: in vivo, Echinochloa crus-galli; conditions: Flood, 250 g ai/ha; 0 to 100 scale where 0 is no effect and 100 is complete control
Procedure, shortened: as §2

giant foxtail [12] = assay: Test A postemergence; format: in vivo, Setaria faberii; conditions: 0 to 100 scale where 0 is no effect and 100 is complete control
Procedure, shortened: as §1

giant foxtail [13] = assay: Test A preemergence; format: in vivo, Setaria faberii; conditions: for Foxtail, Giant plant response rating: 500 g ai/ha
Procedure, shortened: as §1

velvetleaf [14] = assay: Test A preemergence; format: in vivo, Abutilon theophrasti
Procedure, shortened: as §1

barnyardgrass [15] = assay: Test A postemergence; format: in vivo, Echinochloa crus-galli; conditions: 0 to 100 scale where 0 is no effect and 100 is complete control
Procedure, shortened: as §1

wheat [16] = assay: Test A preemergence; format: in vivo, Triticum aestivum
Procedure, shortened: as §1

large (Lg) crabgrass [17] = assay: Test A postemergence; format: in vivo, Digitaria sanguinalis; conditions: 0 to 100 scale where 0 is no effect and 100 is complete control
Procedure, shortened: as §1

[18] = 125 g ai/ha, 0 to 100 scale where 0 is no effect and 100 is complete control
[19] = 0 to 100 scale, 0 no effect, 100 complete control, approx. 10 days
[20] = 0 to 100 scale where 0 is no effect and 100 is complete control
[21] = 500 g ai/ha, 0 to 100 scale where 0 is no effect and 100 is complete control

N#Cc1cccc(Oc2ncc(C(F)(F)F)cn2)c1-n1cc(Br)cn1 [Compound 113]
30: Morningglory plant response rating (morningglory [2]; [19]) | Plant response rating, Morningglory (morningglory [9])
80: Plant response rating, Crabgrass, Large (large (Lg) crabgrass [4]; [18]) | Plant response rating, Velvetleaf (velvetleaf [7]) | Plant response rating, Pigweed (pigweed [8]) | Plant response rating, Barnyardgrass (barnyardgrass [15]; 500 g ai/ha)
0: Plant response rating, Morningglory (morningglory [2]; [18]) | Plant response rating, Rice (rice) | Plant response rating, Corn (corn [6]; [18]) | Plant response rating, Sedge, Umbrella (sedge, umbrella) | Plant response rating, Ducksalad (Heteranthera limosa) | Plant response rating, Barnyardgrass (barnyardgrass [10]; [18]) | Plant response rating, Barnyardgrass (barnyardgrass [11]) | Plant response rating, Barnyardgrass (barnyardgrass [15]; 125 g ai/ha) | Plant response rating, Wheat (wheat [16]; [18])
20: Corn plant response rating (corn [6]; [19]) | Plant response rating, Foxtail, Giant (giant foxtail [13]; [18]) | Plant response rating, Crabgrass, Large (large (Lg) crabgrass [17]; 125 g ai/ha)
90: Barnyardgrass plant response rating (barnyardgrass [10]; [19]) | Foxtail, Giant plant response rating (giant foxtail [13]; [19])
70: Plant response rating, Crabgrass, Large (large (Lg) crabgrass [17]; 500 g ai/ha)
60: Plant response rating, Wheat (wheat [3]) | Plant response rating, Corn (corn [5]; 500 g ai/ha) | Plant response rating, Foxtail, Giant (giant foxtail [12]; 500 g ai/ha)
10: Plant response rating, Corn (corn [5]; 125 g ai/ha) | Plant response rating, Foxtail, Giant (giant foxtail [12]; 125 g ai/ha) | Plant response rating, Velvetleaf (velvetleaf [14]; [18])
100: Plant response rating, Pigweed (pigweed [1]; [18]) | Pigweed plant response rating (pigweed [1]; [19]) | Crabgrass, Large plant response rating (large (Lg) crabgrass [4]; [19])

N#Cc1cc(F)cc(Oc2ncc(Cl)cn2)c1-n1cc(Br)cn1 [Compound 238]
70: Plant response rating, Ducksalad (Heteranthera limosa) | Barnyardgrass plant response rating (0 to 100 scale, 0 is no effect, 100 is complete control) (barnyardgrass [10]; 125 g ai/ha) | Velvetleaf plant response rating (0 to 100 scale) (velvetleaf [14]; 125 g ai/ha)
40: Morningglory plant response rating (morningglory [9]; 125 g ai/ha) | Barnyardgrass plant response rating (barnyardgrass [15]; 125 g ai/ha)
80: Plant response rating, Corn (corn [5]; 500 g ai/ha)
10: Morningglory plant response rating (0 to 100 scale) (morningglory [2]; 125 g ai/ha)
30: Wheat plant response rating (wheat [16]; [21])
0: Wheat plant response rating (wheat [3]; 125 g ai/ha) | Corn plant response rating (corn [5]; 125 g ai/ha) | Plant response rating, Rice (rice) | Corn plant response rating (0 to 100 scale) (corn [6]; 125 g ai/ha) | Plant response rating, Barnyardgrass (barnyardgrass [11]) | Wheat plant response rating (0 to 100 scale) (wheat [16]; 125 g ai/ha)
90: Corn plant response rating (corn [6]; [20]) | Plant response rating, Sedge, Umbrella (sedge, umbrella) | Plant response rating, Foxtail, Giant (giant foxtail [12]; 500 g ai/ha) | Velvetleaf plant response rating (velvetleaf [14]; [21]) | Plant response rating, Crabgrass, Large (large (Lg) crabgrass [17]; 500 g ai/ha)
100: Pigweed plant response rating (0 to 100 scale) (pigweed [1]; 125 g ai/ha) | Pigweed plant response rating (pigweed [1]; [20]) | Morningglory plant response rating (morningglory [2]; [20]) | Crabgrass, Large plant response rating (0 to 100 scale) (large (Lg) crabgrass [4]; 125 g ai/ha) | Crabgrass, Large plant response rating (large (Lg) crabgrass [4]; [20]) | Plant response rating, Velvetleaf (velvetleaf [7]) | Pigweed plant response rating (pigweed [8]; 125 g ai/ha) | Plant response rating, Pigweed (pigweed [8]) | Barnyardgrass plant response rating (barnyardgrass [10]; [20]) | Foxtail, Giant plant response rating (0 to 100 scale) (giant foxtail [13]; 125 g ai/ha) | Foxtail, Giant plant response rating (giant foxtail [13]; [20]) | Plant response rating, Barnyardgrass (barnyardgrass [15]; 500 g ai/ha)
60: Plant response rating, Wheat (wheat [3]) | Velvetleaf plant response rating (velvetleaf [7]; 125 g ai/ha) | Plant response rating, Morningglory (morningglory [9]) | Foxtail, Giant plant response rating (giant foxtail [12]; 125 g ai/ha) | Crabgrass, Large plant response rating (large (Lg) crabgrass [17]; 125 g ai/ha)
